Values quoted from earlier work in patent US20240307352A1, “SACUBITRIL VALSARTAN SODIUM SUSTAINED-RELEASE COMPOSITION, AND PREPARATION METHOD THEREFOR AND USE THEREOF” (SHANGHAI AURORA BIOTECHNOLOGY CO., LTD., priority 2021, published 2024).

Tested on: patients with heart failure with reduced ejection fraction (HF-REF)
Conditions: compared to enalapril-treated counterpart

octadecasodium hexa(4-{[(1S,3R)-1-([1,1′-biphenyl)-4-ylmethyl)-4-ethoxy-3-methyl-4-oxobutyl]amino}-4-oxobutyric acid) hexa(N-pentanoyl-N-{[2′-(1H-tetrazol-5-yl)biphenyl-4-yl]methyl}-L-valine)-hydrate (1/15) [LCZ696]
Reduction in death risk: 20% | Reduction in hospitalization risk: 21%
